Type in all cases: functional, organism-based, Hepacivirus hominis
For test [1], the system named is Hepatitis C virus. The test can be described thus: Antiviral activity against HCV genotype 1b assessed as replicon RNA level measured after 3 days by real-time PCR method. As to conditions: 72 h.
Test [2] relates to Hepatitis C virus. The test can be described thus: Antiviral activity against HCV genotype 2b assessed as replicon RNA level measured after 3 days by real-time PCR method. The note with it: 72 h.
Test [3] relates to Hepatitis C virus. The test can be described thus: Antiviral activity against HCV genotype 1a assessed as replicon RNA level measured after 3 days by real-time PCR method. As to conditions: subtype 1a, 72 h.
Test [4] has as its system Hepatitis C virus. The test can be described thus: Antiviral activity against HCV genotype 1a harboring NS5A L31V mutant assessed as replicon RNA level measured after 3 days by real-time PCR method. As to conditions: subtype 1a, 72 h.
For test [5], the system named is Hepatitis C virus. In words: Antiviral activity against HCV genotype 1a harboring NS5A Y93H mutant assessed as replicon RNA level measured after 3 days by real-time PCR method. The note with it: subtype 1a, 72 h.
For test [6], the system named is Hepatitis C virus. In words: Antiviral activity against HCV genotype 3a assessed as replicon RNA level measured after 3 days by real-time PCR method. As to conditions: 72 h.
Test [7] has as its system Hepatitis C virus. In words: Antiviral activity against HCV genotype 2a assessed as replicon RNA level measured after 3 days by real-time PCR method. The note with it: 72 h.
Test [8] has as its system Hepatitis C virus. In words: Antiviral activity against HCV genotype 4a assessed as replicon RNA level measured after 3 days by real-time PCR method. The note with it: 72 h.

This passage reports EC50 results from ChEMBL document CHEMBL3822455, “Aryl or heteroaryl substituted aminal derivatives of HCV NS5A inhibitor MK-8742” (Bioorg Med Chem Lett, 2016).

With `COC(=O)N[C@H](C(=O)N1CCC[C@H]1c1ncc(-c2ccc3c(c2)OC(c2cc(F)ccc2OC)n2c-3cc3cc(-c4cnc([C@@H]5CCCN5C(=O)[C@@H](NC(=O)OC)C(C)C)[nH]4)ccc32)[nH]1)C(C)C` (stereo partly drawn), the EC50 in test [1] came to 0.01 nM; in test [2], 1 nM; in test [3], 0.02 nM; in test [4], 1 nM; in test [5], 48 nM.
For `COC(=O)N[C@H](C(=O)N1CCC[C@H]1c1ncc(-c2ccc3c(c2)OC(c2ccc(F)cc2)n2c-3cc3cc(-c4cnc([C@@H]5CCCN5C(=O)[C@@H](NC(=O)OC)C(C)C)[nH]4)ccc32)[nH]1)C(C)C` (stereo partly drawn), the EC50 in test [1] is 0.006 nM; in test [2], 2 nM; in test [3] it was 0.003 nM; in test [6] it was 0.06 nM; in test [5], 5 nM; in test [7] it was 0.002 nM. Moreover, the EC50 in test [8] was 0.01 nM.
For `COC(=O)N[C@H](C(=O)N1CCC[C@H]1c1ncc(-c2ccc3c(c2)OC(c2ccccc2Cl)n2c-3cc3cc(-c4cnc([C@@H]5CCCN5C(=O)[C@@H](NC(=O)OC)C(C)C)[nH]4)ccc32)[nH]1)C(C)C` (stereo partly drawn), the EC50 in test [1] came out at 0.004 nM; in test [3] it was 0.01 nM; in test [6], 2 nM; in test [4], 2 nM; in test [5] it was 139 nM; in test [7], 0.04 nM. Further, the EC50 in test [8] was determined as 0.3 nM.
Take `COC(=O)N[C@H](C(=O)N1CCC[C@H]1c1ncc(-c2ccc3c(c2)OC(c2ccc(F)c(F)c2)n2c-3cc3cc(-c4cnc([C@@H]5CCCN5C(=O)[C@@H](NC(=O)OC)C(C)C)[nH]4)ccc32)[nH]1)C(C)C` (stereo partly drawn): the EC50 in test [1] was found to be 0.003 nM; in test [2], 1 nM; in test [3] it was 0.004 nM; in test [4], 0.5 nM; in test [5] it was 3 nM; in test [7], 0.005 nM. In addition, the EC50 in test [8] is 0.008 nM.
As to `COC(=O)N[C@H](C(=O)N1CCC[C@H]1c1ncc(-c2ccc3c(c2)OC(c2ccc(C)cc2)n2c-3cc3cc(-c4cnc([C@@H]5CCCN5C(=O)[C@@H](NC(=O)OC)C(C)C)[nH]4)ccc32)[nH]1)C(C)C` (stereo partly drawn), the EC50 amounted to 0.006 nM in test [1]; 0.01 nM in test [3]; 0.5 nM in test [6]; 4 nM in test [4]; 5 nM in test [5]; 0.01 nM in test [7]. Further, in test [8], the EC50 stood at 0.7 nM.
With `CCCOc1cccc(C2Oc3cc(-c4cnc([C@@H]5CCCN5C(=O)[C@@H](NC(=O)OC)C(C)C)[nH]4)ccc3-c3cc4cc(-c5cnc([C@@H]6CCCN6C(=O)[C@@H](NC(=O)OC)C(C)C)[nH]5)ccc4n32)c1` (stereo partly drawn), the EC50 amounted to 2 nM in test [2]; 0.01 nM in test [3]; 0.08 nM in test [6]; 0.3 nM in test [4]; 2.6 nM in test [5].
Regarding `COC(=O)N[C@H](C(=O)N1CCC[C@H]1c1ncc(-c2ccc3c(c2)OC(c2cccc(OCC(C)C)c2)n2c-3cc3cc(-c4cnc([C@@H]5CCCN5C(=O)[C@@H](NC(=O)OC)C(C)C)[nH]4)ccc32)[nH]1)C(C)C` (mixture of isomers), the EC50 in test [1] turned out to be 0.004 nM; in test [2], 12 nM; in test [3], 0.01 nM; in test [6], 0.02 nM; in test [4] it was 0.2 nM; in test [5], 0.9 nM.
For the molecule `COC(=O)N[C@H](C(=O)N1CCC[C@H]1c1ncc(-c2ccc3c(c2)OC(c2cccc(OC(C)C)c2)n2c-3cc3cc(-c4cnc([C@@H]5CCCN5C(=O)[C@@H](NC(=O)OC)C(C)C)[nH]4)ccc32)[nH]1)C(C)C` (mixture of isomers), the concentration for a half-maximal effect (EC50) in test [2] was 28 nM; in test [3], 0.007 nM; in test [6], 0.08 nM; in test [4], 0.1 nM; in test [5], 4.4 nM.
With `COC(=O)N[C@H](C(=O)N1CCC[C@H]1c1ncc(-c2ccc3c(c2)OC(c2cccc(-c4cn[nH]c4)c2)n2c-3cc3cc(-c4cnc([C@@H]5CCCN5C(=O)[C@@H](NC(=O)OC)C(C)C)[nH]4)ccc32)[nH]1)C(C)C` (mixture of isomers), the EC50 in test [2] was 25 nM; in test [3], 0.01 nM; in test [6], 0.2 nM; in test [4] it was 10 nM; in test [5], 101 nM; in test [7], 0.03 nM.
With `COC(=O)N[C@H](C(=O)N1CCC[C@H]1c1ncc(-c2ccc3c(c2)OC(c2cccc(OC4CCCCC4)c2)n2c-3cc3cc(-c4cnc([C@@H]5CCCN5C(=O)[C@@H](NC(=O)OC)C(C)C)[nH]4)ccc32)[nH]1)C(C)C` (mixture of isomers), the EC50 in test [1] is 0.007 nM; in test [2] it was 7 nM; in test [3], 0.01 nM; in test [5] it was 3 nM.
Take `COC(=O)N[C@H](C(=O)N1CCC[C@H]1c1ncc(-c2ccc3c(c2)OC(c2cccc(OC4CCCC4)c2)n2c-3cc3cc(-c4cnc([C@@H]5CCCN5C(=O)[C@@H](NC(=O)OC)C(C)C)[nH]4)ccc32)[nH]1)C(C)C` (mixture of isomers): the EC50 was 0.006 nM in test [1]; 6 nM in test [2]; 0.01 nM in test [3]; 0.03 nM in test [6]; 0.2 nM in test [4]; 4 nM in test [5].
Regarding `COC(=O)N[C@H](C(=O)N1CCC[C@H]1c1ncc(-c2ccc3c(c2)OC(c2ccccn2)n2c-3cc3cc(-c4cnc([C@@H]5CCCN5C(=O)[C@@H](NC(=O)OC)C(C)C)[nH]4)ccc32)[nH]1)C(C)C` (mixture of isomers), the EC50 in test [1] was determined as 0.01 nM; in test [2], 3 nM; in test [3] it was 0.009 nM; in test [6] it was 0.2 nM; in test [5], 31 nM; in test [7] it was 0.06 nM. The EC50 in test [8] amounted to 0.02 nM.
Regarding `COC(=O)N[C@H](C(=O)N1CCC[C@H]1c1ncc(-c2ccc3c(c2)OC(c2cccc(-c4ccncc4)c2)n2c-3cc3cc(-c4cnc([C@@H]5CCCN5C(=O)[C@@H](NC(=O)OC)C(C)C)[nH]4)ccc32)[nH]1)C(C)C` (mixture of isomers), the EC50 in test [2] worked out at 10 nM; in test [3] it was 0.007 nM; in test [6] it was 0.08 nM; in test [4], 10 nM; in test [5], 40 nM; in test [7] it was 0.007 nM.
Turning to `COC(=O)N[C@H](C(=O)N1CCC[C@H]1c1ncc(-c2ccc3c(c2)OC(c2cc(F)cc(OC)c2)n2c-3cc3cc(-c4cnc([C@@H]5CCCN5C(=O)[C@@H](NC(=O)OC)C(C)C)[nH]4)ccc32)[nH]1)C(C)C` (mixture of isomers), the EC50 turned out to be 0.007 nM in test [1]; 0.1 nM in test [2]; 0.006 nM in test [3]; 0.1 nM in test [4]; 2.3 nM in test [5].
Regarding `COC(=O)N[C@H](C(=O)N1CCC[C@H]1c1ncc(-c2ccc3c(c2)OC(c2cccc(C#N)c2)n2c-3cc3cc(-c4cnc([C@@H]5CCCN5C(=O)[C@@H](NC(=O)OC)C(C)C)[nH]4)ccc32)[nH]1)C(C)C` (mixture of isomers), the concentration for a half-maximal effect (EC50) was < 0.2 nM in test [1]; < 2 nM in test [2]; < 2 nM in test [3]; < 2 nM in test [6]; 4 nM in test [5]; < 2 nM in test [7]. In test [8], the EC50 is < 2 nM.
In the case of `COC(=O)N[C@H](C(=O)N1CCC[C@H]1c1ncc(-c2ccc3c(c2)OC(c2ccc(C(F)(F)F)cc2)n2c-3cc3cc(-c4cnc([C@@H]5CCCN5C(=O)[C@@H](NC(=O)OC)C(C)C)[nH]4)ccc32)[nH]1)C(C)C` (mixture of isomers), the EC50 in test [1] worked out at 0.009 nM; in test [3], 0.016 nM; in test [6], 0.27 nM; in test [5], 46 nM; in test [7], 0.027 nM; in test [8], 0.04 nM.
`COC(=O)N[C@H](C(=O)N1CCC[C@H]1c1ncc(-c2ccc3c(c2)OC(c2cccc(C)c2)n2c-3cc3cc(-c4cnc([C@@H]5CCCN5C(=O)[C@@H](NC(=O)OC)C(C)C)[nH]4)ccc32)[nH]1)C(C)C` (mixture of isomers): the values for the 50% effective concentration (EC50) in test [2], in test [4] and in test [5] were 2 nM, 0.52 nM and 12 nM, respectively.
With `COC(=O)N[C@H](C(=O)N1CCC[C@H]1c1ncc(-c2ccc3c(c2)OC(c2ccncc2)n2c-3cc3cc(-c4cnc([C@@H]5CCCN5C(=O)[C@@H](NC(=O)OC)C(C)C)[nH]4)ccc32)[nH]1)C(C)C` (mixture of isomers), the EC50 in test [1] was 0.01 nM; in test [3] it was 0.01 nM; in test [6], 0.8 nM; in test [4], 0.6 nM; in test [5] it was 146 nM; in test [7], 0.02 nM. Besides, the half-maximal effective concentration (EC50) in test [8] was found to be 0.2 nM.
For the molecule `COC(=O)N[C@H](C(=O)N1CCC[C@H]1c1ncc(-c2ccc3c(c2)OC(c2cncnc2)n2c-3cc3cc(-c4cnc([C@@H]5CCCN5C(=O)[C@@H](NC(=O)OC)C(C)C)[nH]4)ccc32)[nH]1)C(C)C` (mixture of isomers), the EC50 in test [2] worked out at 10 nM; in test [3], 0.004 nM; in test [6], 0.2 nM; in test [4] it was 10 nM; in test [5], 12 nM; in test [7] it was 0.02 nM.
Consider `COC(=O)N[C@H](C(=O)N1CCC[C@H]1c1ncc(-c2ccc3c(c2)OC(c2cccc(O)c2)n2c-3cc3cc(-c4cnc([C@@H]5CCCN5C(=O)[C@@H](NC(=O)OC)C(C)C)[nH]4)ccc32)[nH]1)C(C)C` (mixture of isomers), for which the concentration giving a half-maximal response (EC50) in test [2] stood at 3 nM; in test [3], 0.02 nM; in test [6] it was 0.02 nM; in test [5] it was 0.8 nM; in test [7], 0.03 nM; in test [8] it was 0.02 nM.
